In patent US4757083A, “Novel pyrrolidinylamide ester derivatives having anti-prolyl endopeptidase activity and synthesis and use thereof” (Suntory Limited, priority 1985, dated 1988):

These molecules were tested against prolyl endopeptidase (Elizabethkingia meningoseptica, UniProt P27028) (assay: Measurement of anti-prolyl endopeptidase activity (Z-glycyl-proline-β-naphthylamide substrate)). Settings: amount for 50% inhibition, pH 7.0, 35° C., 10 minutes, absorbance at 410 nm.
Assay type: biochemical
Procedure: The method of Yoshimoto and Tsuru [T. Yoshimoto and D. Tsuru, Agric. Biol. Chem., 42, 2417 (1978)] was used to measured the anti-prolyl endopeptidase activities of several compounds of the present invention. A mixture of 0.0025M Z-glycyl-proline-β-naphthylamide (0.25 ml), 0.1M phosphate buffer (pH, 7.0; 0.99 ml) and a solution of a particular anti-prolyl endopeptidase compound (0.01 ml) was incubated in a test tube at 37° C. for 3 minutes. Thereafter, 0.1 ml of a solution of prolyl endopeptidase (0.2 U/ml) was added and the mixture was incubated at 35° C. for 10 minutes. After the reaction, 2.0 ml of Triton X-100 in 1M acetate buffer (pH, 4.0) was added to the reaction mixture so that the final concentration of the surfactant was 10%. The mixture was left at room temperature for 15 minutes and the absorbance (a) at 410 nm was measured.
A sample of a blind test was prepared by using the buffer instead of the anti-prolyl endopeptidase compound and its absorbance (b) was also measured. The percent inhibition of prolyl endopeptidase was calculated by the formula: […]
and the amount of a specific compound needed to achieve 50% inhibition (IC50) was determined.

Sequence of prolyl endopeptidase (P27028 21-705): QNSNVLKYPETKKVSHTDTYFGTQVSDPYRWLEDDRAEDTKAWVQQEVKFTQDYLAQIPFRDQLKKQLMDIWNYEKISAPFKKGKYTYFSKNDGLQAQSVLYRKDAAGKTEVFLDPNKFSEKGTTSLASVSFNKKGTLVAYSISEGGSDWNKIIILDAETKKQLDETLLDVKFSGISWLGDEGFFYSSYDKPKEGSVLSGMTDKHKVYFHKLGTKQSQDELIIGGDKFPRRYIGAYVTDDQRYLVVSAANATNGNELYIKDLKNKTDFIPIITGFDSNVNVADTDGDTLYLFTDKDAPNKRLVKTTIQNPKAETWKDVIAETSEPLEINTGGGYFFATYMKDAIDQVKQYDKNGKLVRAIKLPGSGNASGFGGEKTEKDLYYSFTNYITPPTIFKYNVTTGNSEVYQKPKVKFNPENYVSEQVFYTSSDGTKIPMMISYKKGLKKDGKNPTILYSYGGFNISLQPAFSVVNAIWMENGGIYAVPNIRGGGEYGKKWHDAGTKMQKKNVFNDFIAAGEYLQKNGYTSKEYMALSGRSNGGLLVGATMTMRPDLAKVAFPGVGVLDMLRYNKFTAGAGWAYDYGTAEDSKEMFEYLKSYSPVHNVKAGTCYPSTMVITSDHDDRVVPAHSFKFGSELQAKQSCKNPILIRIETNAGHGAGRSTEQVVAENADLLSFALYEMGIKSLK

IC50	SMILES
0.70 μg/test tube	CC(C)CC(OC(=O)CCCc1ccccc1)C(=O)N1CCCC1 (stereo not drawn) [Example 1, N-[2-(γ-phenyl)butyryloxy-4-methylvaleryl]pyrrolidine]
0.90 μg/test tube	CC(C)C(OC(=O)CCCc1ccccc1)C(=O)N1CCCC1 (stereo not drawn) [Example 2, N-[2-(γ-phenyl)butyryloxy-3-methylbutyryl]pyrrolidine]
4.0 μg/test tube	CCCCCCC(OC(=O)CCCc1ccccc1)C(=O)N1CCCC1 (stereo not drawn) [Example 3, N-[2-(γ-phenyl)butyryloxy-n-capryloyl]pyrrolidine]
